Measurements taken from patent US20260215432A1, “ANTIMICROBIAL CONJUGATED OLIGOELECTROLYTES AND METHODS THEREOF” (National University of Singapore, priority 2023, published 2026).

What was measured:
MRSA [1] = assay: Propidium iodide influx assay; format: cell-based, S. aureus; details: 0.5 to 2 μg mL^−1 (half to twice the MIC)
Source text: Another hallmark of cytoplasmic membrane damage is an enhanced permeability towards small molecules. Propidium iodide (PI) is a membrane-impermeant organic dye that can be used to study potential mechanisms of action of antibiotics due to its enhanced fluorescence intensity upon binding to intracellular DNA. Treatment with molecules that cause membrane perturbations enable rapid influx of the dye, resulting in an increase in fluorescence emission that can be monitored over time. […] This difference hints at two plausible mechanisms of action that are concentration dependent. Similar observations have been made for tobramycin, where a protein inhibition mode of action at lower concentrations (<4 μg mL^−1) is supplanted by disruption of the outer membrane at higher concentrations (8 μg mL^−1).
The assay was performed according to a modified reported protocol.^4 Briefly, the corresponding bacteria was collected from mid-log cultures by centrifugation (7000 rpm, 10 minutes) and washed thrice with PBS. The pellet was then resuspended in the same buffer and diluted to an optical density of 2 by extrapolation. […] Fluorescence intensity was measured over time in a plate reader with an excitation wavelength of 525 nm and emission wavelength of 620 nm. Fluorescence signals were measured every 30 seconds and carried out in triplicate.

PAO1 = assay: Flow cytometry of PI uptake; format: cell-based, P. aeruginosa; details: PAO1, 16 μg mL^−1 (4× MIC), PI staining
Description: Flow cytometry measurements were carried out to quantify PI uptake at the cellular level.
Bacteria cells were collected from mid-log cultures by centrifugation (7000 rpm, 10 minutes). and washed with PBS twice. Cells were treated with the COE at 4×MIC and incubated for 30 minutes. PI (30 μM, final concentration) was then added and the cells were further incubated for 10 minutes. The suspension was then diluted in PBS to an appropriate cell density and analysed with flow cytometry using an Amnis ImageStreamX Mk II Imaging Flow Cytometer. The collection gate was set using the area vs aspect ratio of the brightfield channel to select for intact cell events only. To select for PI-stained cells, excitation was carried out using a 638 nm laser and the emission was collected in the range of 642-745 nm. Data was processed using IDEAS v6.3.

MRSA [2] = assay: S. aureus murine wound infection model; format: in vivo, mice; details: 0.05 mg/kg, MRSA-inoculated mouse wound, 24 hours
Description: To probe the potential of TPP-COEs as viable therapeutics, we assessed the efficacy of DM6P to treat bacterial infections in vivo. An S. aureus murine wound infection model was used due to prevalent clinical concerns associated with S. aureus skin and soft tissue infections (SSTIs). […] Relative to current clinical dosages of 4-6 mg/kg for daptomycin, the low concentrations required to achieve such activity in vivo and absence of bacterial regrowth after 24 hours underscores the potential for further developing TPP-COEs with improved activity and safety profiles.
Animal experiments were approved by the Institutional Animal Care and Use Committee (IACUC), National University of Singapore (R20-1178) and carried out in line with procedures in the Guide for the Care and Use of Laboratory Animals (National Institutes of Health). C57BL6 mice (female, 18-20 g) were anaesthetized by ketamine and the hair at the back were shaved and removed. A 6 mm-diameter excisional wound was created on the back using a biopsy punch. Log phase MRSA (in 5 μl PBS) were inoculated onto the wound. A 3M tegaderm were used to cover the wound site from contamination. […] Significant levels were evaluated by a one-way ANOVA followed by a multiple comparison analysis of variance by a one-way Tukey test (Graphpad PRISM).

[3] = tested on: Staphylococcus pseudintermedius; assay: Mouse wound infection model, S. pseudintermedius; format: in vivo, mice; details: for average CFU: S. pseudintermedius mouse wound
Source text: Staphylococcus pseudintermedius (SP) is particularly pathogenic towards dogs, with skin infections such as pyoderma being characterized by a lengthy treatment period and high treatment failure due to antimicrobial resistance. Here, we show high in vivo antimicrobial efficacy of compounds of FIG. 11 in a mouse wound infection model, featuring over a 3-log reduction in bacterial load at low concentrations. The grouping tested with saline has an average CFU of 5.16×10^8 CFU/g. The grouping tested with DM6P (0.1 mg/kg) has an average CFU of 1.62×10^7 CFU/g. The grouping tested with DM6P (0.25 mg/kg) has an average CFU of 5.51×10^5 CFU/g.
For testing against Staphylococcus pseudintermedius, C57BL/6[SPF] mice (female, 18-20 g) were first acclimated, weighed and grouped based on body weight into 3 groups. Mice were anaesthetized and the hair at the back will be shaved and removed. A 6 mm-diameter excisional wound was created on the back of each mouse, and log-phase Staphylococcus pseudintermedius (Sp strain) (in 5 μL PBS) will be inoculated onto the wound. A 3M tegaderm will be used to cover the wound site from contamination. 2 h post infection, the groups were tested with saline, DM6P (0.1 mg/kg) and DM6P (0.25 mg/kg) respectively, by adding directly to wound site. At 12 h and 24 h post infection, sampling and colony enumeration were conducted. At 24 h post infection, all mice were sacrificed and the wound tissue harvested into 1 mL PBS.

[4] = phosphate-buffered saline; below 10 μg mL^−1 estimated by turbidimetric screening
Description: The solubility of all the TPP derivatives was determined in phosphate-buffered saline (PBS) (Table S3).

[5] = mice
Description: At the end-point, mice were sacrificed and the individual organs and blood samples were collected. Tissues were fixed in 10% neutral-buffered formalin (NBF) for 48 hours and subjected to H&E staining and examination. Clinical blood biomarkers were analysed with a Pointcare® cM4 Blood Chemistry Analyzer (Tianjin MNCHIP Technologies Co., Ltd) according to the manufacturer's protocol.

[6] = 0.25 mg kg^−1, blood after 14 days, mean ± s.d. (n = 3)

COc1cc(/C=C/c2ccc(OCCCCCC[P+](c3ccccc3)(c3ccccc3)c3ccccc3)c(OC)c2)ccc1OCCCCCC[P+](c1ccccc1)(c1ccccc1)c1ccccc1.[I-].[I-] [DM6P]
PI influx (MRSA [1]): PI influx was observed at 2×MIC | PI uptake at the cellular level (PAO1): near quantitative cell staining with PI | reduction in bacterial load compared to the saline-treated group (MRSA [2]): 3.8 log fold | average CFU ([3]; 0.1 mg/kg): 1.62×10^7 CFU/g | average CFU ([3]; 0.25 mg/kg): 5.51×10^5 CFU/g | tolerability (side effects) ([3]; mice, following compound administration): did not show any negative side effects | solubility in PBS [4]: 108 µg/mL | ALB (albumin) [5, 6]: 30 ± 3.3 g/L | ALT (alanine transaminase) [5, 6]: 38.7 ± 4.1 U/L | AST (aspartate aminotransferase) [5, 6]: 205 ± 50.7 U/L | BUN (blood urea nitrogen) [5, 6]: 6.7 ± 0.3 mM | CRE [5, 6]: 63.7 ± 10.1 µM | GGT (gamma-glutamyl transferase) [5, 6]: 0.6 ± 0.1 U/L | GLO (globulin) [5, 6]: 18.6 ± 1.5 g/L | TBIL (total bilirubin) [5, 6]: 2.9 ± 0.5 µM | TP (total protein) [5, 6]: 48.6 ± 1.9 g/L | blood biomarker levels compared to saline-treated controls ([5]; 0.25 mg/kg, after 14 days): no significant difference | H&E staining of the major organs ([5]; DM6P treated, 14 days post-treatment): did not reveal any abnormal signs
